From paper PMC10584170, “Machine learning-based phenotypic imaging to characterise the targetable biology of Plasmodium falciparum male gametocytes for the development of transmission-blocking antimalarials” (PLOS Pathogens, 2023)
Read-outs that look alike come from different tables or passages of the source.

Assays:
[1] = system: P. falciparum male gametocytes; assay: P. falciparum Dual Gamete Formation Assay (PfDGFA), male readout (exflagellation); format: cell-based, Plasmodium falciparum NF54; conditions: for inhibition at 2 µM: 24h preincubation with gametocytes
Outline: (§1)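 Day-14 NF54 gametocytes were incubated with compound for 24 h at 37°C under 1% O2/3% CO2/96% N2. Gametogenesis was triggered with ookinete medium (0.1 μM xanthurenic acid) plus Cy3-anti-Pfs25, and exflagellation was imaged by brightfield after cooling to 4°C then 28°C. Females were imaged by Pfs25 fluorescence 24 h later at 28°C.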

[2] = system: P. berghei ookinete development; assay: P. berghei Ookinete Development Assay (PbODA); format: cell-based, Plasmodium berghei; conditions: Mean TOX HepG2 over Pb ODA value; GREEN = >10-fold; RED = <10-fold
Description: (§2) Fig 1 The activity of TCAMS compound identified in the Pf DGFA screen. (A) 85 molecules were confirmed active in the Pf DGFA. 58 were previously identified in one or more transmission-blocking screens. […] No molecule was identified with >4.7-fold greater activity against female gametocytes. Abbreviations (IC50 = concentration giving 50% inhibition, PbODA = P. berghei Ookinete Development Assay, PfDGFA = P. falciparum Dual Gamete Formation Assay, PfFGAA = P. falciparum Female Gametocyte Activation Assay, PfGCT = P. falciparum Gametocyte Viability ATP Assay).

[3] = system: HepG2 cells; conditions: cited from earlier work
[4] = system: P. falciparum female gametocytes; assay: P. falciparum Dual Gamete Formation Assay (PfDGFA), female readout (Pfs25-positive female gametes); format: cell-based, Plasmodium falciparum NF54; conditions: for inhibition at 2 µM: 24h preincubation with gametocytes
Outline: as §1

[5] = system: HepG2 cells; assay: HepG2 cytotoxicity counter-screen; conditions: for Mean TOX: mean of the HepG2 TOX50 values
[6] = system: P. falciparum female gametocytes; parameters: method as in Miguel-Blanco et al 2017; conditions: ref Miguel-Blanco et al 2017; read-out: Pf female gametogenesis FGAA IC50; cited from earlier work
[7] = system: P. falciparum female gametocytes; assay: P. falciparum Female Gametocyte Activation Assay (PfFGAA); format: cell-based, Plasmodium falciparum
Description: as §2

[8] = this study, read-out: Pf DGFA IC50 MALE
[9] = this study, read-out: Pf DGFA IC50 FEM
[10] = Mean TOX HepG2 over FGAA IC50, GREEN = >10-fold, RED = <10-fold

## COc1ccc2nc(-c3cc(-c4ccc(NC(=O)C(C)C)cc4)cnc3N)[nH]c2c1 [TC32]
[1]
  Cytotox ratio Pf Male: 19.8
[1]; [8]
  IC50: 430 nM
[2]
  Cytotox ratio Pb Ookinete: 12253.3
[3]
  ODA TOX50 HepG2: 8.61 µM
[4]
  Cytotox ratio Pf Female: 0.85
[5]
  Mean TOX: 8.50 µM

## CCC1=C[C@@H]2CN(C1)Cc1c([nH]c3ccccc13)[C@@](C(=O)OC)(c1cc3c(cc1OC)N(C)[C@H]1[C@@](O)(C(=O)OC)[C@H](O)[C@]4(CC)C=CCN5CC[C@]31[C@@H]54)C2.O=S(=O)(O)O [TC21]
[1]
  Cytotox ratio Pf Male: 4844.5
[1]; [8]
  IC50: 10 nM
[2]
  Cytotox ratio Pb Ookinete: 80190.9
[3]
  ODA TOX50 HepG2: 41.2098 µM
[4]
  Cytotox ratio Pf Female: 4.8
[5]
  Mean TOX: 48.44 µM

## CN1CCN(c2ccc(Nc3ncc(Cl)c(Nc4cccnc4C(N)=O)n3)cc2)CC1.Cl [TC24]
[1]
  Cytotox ratio Pf Male: 11.9
[1]; [8]
  IC50: 460 nM
[2]
  Cytotox ratio Pb Ookinete: 13093.5
[3]
  ODA TOX50 HepG2: 4.624 µM
[4]
  Cytotox ratio Pf Female: 1.0
[4]; [9]
  IC50: 5470 nM
[5]
  Mean TOX: 5.46 µM

## COc1ccc2nc(-c3cc(-c4ccc(NC(C)=O)cc4)cnc3N)[nH]c2c1 [TC69]
[1]
  Cytotox ratio Pf Male: 14.0
[1]; [8]
  IC50: 540 nM
[2]
  Cytotox ratio Pb Ookinete: 10513.6
[3]
  ODA TOX50 HepG2: 12.02 µM
[4]
  Cytotox ratio Pf Female: 0.755
[5]
  Mean TOX: 7.55 µM

## CNC(=O)c1ccccc1Nc1nc(Nc2ccc(N3CCOCC3)cc2)ncc1Cl.Cl [TC28]
[1]
  Cytotox ratio Pf Male: 12.4
[1]; [8]
  IC50: 180 nM
[2]
  Cytotox ratio Pb Ookinete: 3489.3
[3]
  ODA TOX50 HepG2: 3.631 µM
[4]
  Cytotox ratio Pf Female: 0.223
[5]
  Mean TOX: 2.23 µM

## CN(C)CCOc1ccc(NC(=O)NC(C)(C)c2nc(-c3ccc(Cl)c(O)c3)c(-c3ccncc3)[nH]2)cc1.Cl [TCMDC-140744]
[1]; HepG2 Tox50 versus male IC50
  Selectivity Ratio M: 89.77
[1]; Mean TOX HepG2 over DGFA IC50 MALE, GREEN = >10-fold, RED = <10-fold
  Cytotox ratio Pf Male: 65.9
[1]; Plasmodium falciparum, average of replicates, read-out: Average inhibition male (%)
  inhibition at 2 µM: 97.8%
[1]; Plasmodium falciparum, replicate R1, read-out: % inhibition male (individual replicates) R1
  inhibition at 2 µM: 98.2%
[1]; Plasmodium falciparum, replicate R2, read-out: % inhibition male (individual replicates) R2
  inhibition at 2 µM: 101%
[1]; Plasmodium falciparum, replicate R3, read-out: % inhibition male (individual replicates) R3
  inhibition at 2 µM: 95.7%
[1]; Plasmodium falciparum, replicate R4, read-out: % inhibition male (individual replicates) R4
  inhibition at 2 µM: 96.3%
[1]; Plasmodium falciparum, PfDGFA, 24 h incubation with gametocytes before induction, exflagellation readout, read-out: Male IC50
  IC50: 330 nM
[3]; HepG2 value reported with the FGAA screen, ref Miguel-Blanco et al 2017
  FGAA TOX50 HepG2: 14.3 µM
[4]; HepG2 Tox50 versus female IC50
  Selectivity ratio F: 76.37
[4]; Mean TOX HepG2 over DGFA IC50 FEM, GREEN = >10-fold, RED = <10-fold
  Cytotox ratio Pf Female: 57.2
[4]; Plasmodium falciparum, average of replicates, read-out: Average inhibition female (%)
  inhibition at 2 µM: 95.5%
[4]; Plasmodium falciparum, replicate R1, read-out: % inhibition female (individual replicates) R1
  inhibition at 2 µM: 91.1%
[4]; Plasmodium falciparum, replicate R2, read-out: % inhibition female (individual replicates) R2
  inhibition at 2 µM: 96.2%
[4]; Plasmodium falciparum, replicate R3, read-out: % inhibition female (individual replicates) R3
  inhibition at 2 µM: 101%
[4]; Plasmodium falciparum, replicate R4, read-out: % inhibition female (individual replicates) R4
  inhibition at 2 µM: 93.9%
[4]; Plasmodium falciparum, PfDGFA, 24 h incubation with gametocytes before induction, female gamete readout, read-out: Female IC50
  IC50: 380 nM
[6]
  IC50: 730 nM
[7]; human
  Cytotox ratio Pf FGAA: 29.8
[5]; cytotoxic activity against HepG2 cells
  Tox50: 29.19 µM
[5]
  Mean TOX: 21.75 µM

## CCN(CC)CCN(Cc1ccc(-c2ccc(C(F)(F)F)cc2)cc1)C(=O)Cn1cc(Cc2cnn(C)c2)c(=O)nc1/C=C/c1ccc(F)cc1.O=C(O)C(O)C(O)C(=O)O [TC64]
[1]
  Cytotox ratio Pf Male: 17.8
[1]; [8]
  IC50: 850 nM
[3]
  FGAA TOX50 HepG2: 13.81 µM
[4]
  Cytotox ratio Pf Female: 2.1
[4]; [9]
  IC50: 7160 nM
[6]
  IC50: 1210 nM
[7]; [10]
  Cytotox ratio Pf FGAA: 12.5
[5]
  Mean TOX: 15.09 µM

## FC(F)(F)c1ccc2[nH]c(-c3ccc(-c4ccc(CNCCN5CCNCC5)cc4)cc3)nc2c1.O=C(O)C(F)(F)F [TC40]
[1]
  Cytotox ratio Pf Male: 10.3
[1]; [8]
  IC50: 1460 nM
[3]
  FGAA TOX50 HepG2: 16.43 µM
[4]
  Cytotox ratio Pf Female: 2.5
[4]; [9]
  IC50: 6080 nM
[6]
  IC50: 1410 nM
[7]; [10]
  Cytotox ratio Pf FGAA: 10.7
[5]
  Mean TOX: 15.09 µM
